Results reported in patent publication US9562083B2, “Peptides and methods for inducing cell death” (Los Angeles Biomedical Research Institute at Harbor-UCLA …, priority 2010, dated 2017).

Columns and labels:
[1] = system: Pseudomonas aeruginosa 01; assay: Modified radial diffusion assay (zones of growth inhibition); assay type: cell-based; conditions: pH 5.5 versus pH 7.5
Procedure: (§1) An agar radial diffusion assay has been used as described herein to determine antimicrobial activities of proteins against microbial pathogens in vitro. One million CFU will be mixed into 10 ml (i.e., 1×10^5 CFU/ml) of melted 1% agarose (in 10 mM NaHPO4 and cooled to 42° C.) containing minimal nutrient and adjusted to either pH 5.5 or pH 7.2. The agar is solidified in culture dishes, and sample wells are formed. Peptides at various concentrations are dissolved in 10 μl of 0.01% acetic acid buffer (pH 5.5 or 7.2), loaded into individual wells, and incubated at 37° C. for three hours. The plate is then overlayed with 1% agarose containing nutrients and incubated (37° C., for at least 24 hours). Peptides purified by RP-HPLC lacking antimicrobial activity are tested in parallel as controls. Zones of inhibition are measured to quantify antimicrobial activity. This assay will not distinguish between microbicidal and microbiostatic actions, but is highly sensitive to peptides with one or both functions.
(§2) The following assay is designed to measure the relative antimicrobial activity of peptides by determining zones of growth inhibition.
(§3) The top eleven prioritized target sequences identified in Example I (see Table 21) were synthesized by solid-phase chain extension synthesis using conventional techniques. Each synthetic peptide was purified by RP-HPLC, and authenticated for purity and correct sequence by mass spectroscopy. Stock concentrations of the synthetic peptides were prepared at 1 mg/mL in 0.01% acetic acid and adjusted to pH 7.2. Synthetic peptides were assessed for antimicrobial efficacy, spectra, and conditional optima (pH 5.5 or 7.5) using the following modified radial diffusion assay, as detailed in Yount and Yeaman, PNAS […] (2004).
(§4) Molecular grade agarose (1.0%) in 10 mM NaH2PO4H2O was prepared, pH adjusted to 7.5 or 5.5, and autoclaved for 15 minutes at 121° C., then held in a waterbath set at 48° C. until used. Mueller Hinton II overlay agarose was prepared by adding molecular grade agarose to Mueller Hinton II Broth at a final concentration of 1.0%, pH adjusted to 7.5 or 5.5, autoclaved for 10 minutes at 121° C., and then held at 48° C. until used.
(§5) Trypticase Soy Broth (TSB) (10 mL) we inoculated with an overnight growth of the test organism and incubated three to six hours until the organism reached log phase. The cells were collected by centrifugation, washed in PBS, then 0.01% acetic acid adjusted to pH 7.2. The pellet was resuspended in TSB and standardized to a 0.5 McFarland turbidity standard. A 10 μl aliquot of the inoculum is added to 10 mL of the pH-adjusted 1.0% molecular grade agarose cooled to 48° C. resulting in a final inoculum concentration of 5×10^5 CFU/mL. The suspension is poured into a 15×100 mm Petri dish and allowed to solidify.
(§6) After solidification had occurred, five 4 mm diameter wells were bored into the agarose. The central well was used as the acetic acid control while 10 μl of peptide stock solution was added to each of the other wells resulting in a final concentration of 10 μg peptide/well. The plates were incubated upright for three hours at 37° C., then overlaid with 10 mL of Mueller Hinton II agarose. After the overlay solidified, the plates were inverted and incubated overnight at 37° C.
(§7) The synthetic peptides identified in Table 22 were assayed for antimicrobial activity against known pathogenic microorganisms. These pathogenic microorganisms included five species of bacteria (Staphylococcus aureus, Escherichia coli, Salmonella typhimurium, Pseudomonas aeruginosa and Bacillus subtilis) and one species of fungi (Candida albicans) (see Table 23). Zones of growth inhibition were measured and were grouped as complete and/or partial growth zones for the assayed microorganism. Zones were considered complete clearance when there was no visible growth (i.e. completely clear or free of growth). […]

[2] = system: Bacillus subtilis ATCC 6633; assay: as above; assay type: cell-based; conditions: pH 5.5 versus pH 7.5
Procedure: as §1, §2, §3, §4, §5, §6, §7

Escherichia coli ML-35 = assay: as above; assay type: cell-based; conditions: pH 5.5 versus pH 7.5
Procedure: as §1, §2, §3, §4, §5, §6, §7

[3] = system: Salmonella typhimurium 14028; assay: as above; assay type: cell-based; conditions: pH 5.5 versus pH 7.5
Procedure: as §1, §2, §3, §4, §5, §6, §7

[4] = system: Acinetobacter baumannii isolates; assay: Radial diffusion assay, Example III; assay type: cell-based; conditions: pH 5.5 vs. pH 7.5
Procedure: as §3, §4, §5, §6
(§8) The synthetic peptides identified in Table 22 were assayed for antimicrobial activity against known pathogenic microorganisms. These pathogenic microorganisms included five species of bacteria (Staphylococcus aureus, Escherichia coli, Salmonella typhimurium, Pseudomonas aeruginosa and Bacillus subtilis) and one species of fungi (Candida albicans) (see Table 23). Zones of growth inhibition were measured and were grouped as complete and/or partial growth zones for the assayed microorganism. Zones were considered complete clearance when there was no visible growth (i.e. completely clear or free of growth). Zones were considered partial clearance when growth was impeded or partially cleared (i.e. reduction in microbial density as compared to adjacent confluent growth). The larger the zone size, the greater the antimicrobial activity of the test peptide. The lack of a zone is an indication of no antimicrobial activity of the test peptide against the target organism under the conditions tested.
(§9) Further to the methods disclosed in Example II, utilizing the same antimicrobial assay above, the antimicrobial activity of peptides Hol-III-4 (SEQ ID NO: 268) and Ncl-VIII-6 (SEQ ID NO: 152 was determined by identifying zones of growth inhibition.
(§10) Hol-III-4 and Ncl-VIII-6 peptides were assayed for antimicrobial activity against a panel of drug-resistant Gram-negative bacterial pathogens, specifically Pseudomonas aeruginosa, and various Acinetobacter spp. strains. […] The RP-1 peptide is well known in the art to have antimicrobial activity, as illustrated in Yeaman et al., Antimicrobial Agents and Chemotherapy, 46(12):3883-3891 (2002). The 6W-RP-1 peptide is a 6-Trp variant of RP-1, which also has antimicrobial activity, as illustrated in Kilelee et al, Antimicrobial Agents and Chemotherapy 54(10):4476-4479 (2010).

[5] = system: Pseudomonas aeruginosa strains (drug-resistant); assay: Radial diffusion assay, Example III; assay type: cell-based; conditions: pH 5.5 and pH 7.5; all strains tested
Procedure: as §3, §4, §5, §6, §8, §9, §10

[6] = system: Acinetobacter spp. strains (drug-resistant); assay: Radial diffusion assay, Example III; assay type: cell-based; conditions: pH 5.5 and pH 7.5; all strains tested
Procedure: as §3, §4, §5, §6, §8, §9, §10

[7] = known in the art; cited from earlier work

H2N-IRLVSKYGKSKGIAYI-CONH2 (H-IRLVSKYGKSKGIAYI-NH2) [Ncl-VIII-6, designed from Nucleolin]
effect of acidic pH on antimicrobial activity [1]: did not appear to affect the activity
effect of acidic pH on antimicrobial activity [2]: did not appear to affect the activity
effect of acidic pH on antimicrobial activity (Escherichia coli ML-35): did not appear to affect the activity
effect of acidic pH on antimicrobial activity [3]: did not appear to affect the activity
pH dependence of antimicrobial activity [4]: pH dependent
antimicrobial activity (zone of inhibition) [5]: significant antimicrobial activity
antimicrobial activity (zone of inhibition) [6]: significant antimicrobial activity

H2N-SIGSLIKRFAYKKAGV-CONH2 (H-SIGSLIKRFAYKKAGV-NH2) [Hol-III-4, designed from Holin protein]
effect of acidic pH on antimicrobial activity [1]: did not appear to affect the activity
effect of acidic pH on antimicrobial activity [2]: did not appear to affect the activity
effect of acidic pH on antimicrobial activity (Escherichia coli ML-35): did not appear to affect the activity
effect of acidic pH on antimicrobial activity [3]: did not appear to affect the activity
pH dependence of antimicrobial activity [4]: pH dependent
antimicrobial activity (zone of inhibition) [5]: significant antimicrobial activity
antimicrobial activity (zone of inhibition) [6]: significant antimicrobial activity

H-ALFYFASKLYLKALYTKV-NH2 [BaxP-I-18]
effect of acidic pH on antimicrobial activity [1]: did not appear to affect the activity
effect of acidic pH on antimicrobial activity [2]: did not appear to affect the activity
effect of acidic pH on antimicrobial activity (Escherichia coli ML-35): did not appear to affect the activity
effect of acidic pH on antimicrobial activity [3]: did not appear to affect the activity

N-AALYKKKIIKKLLES-C [PMP-2, C-terminal helix of the consensus molecule cPMP]
antimicrobial activity [7]: known to have antimicrobial activity
